Source: patent US10100056B2, “SHIP1 modulators and methods related thereto” (Aquinox Pharmaceuticals (Canada) Inc., priority 2013, dated 2018)
Marks after values point to notes of the source that are not given here.

Columns and labels:
His-hSHIP1 enzyme = biological target: T1, His-hSHIP1 enzyme (Homo sapiens, UniProt Q92835); assay: His-hSHIP1 activity (phosphatase assay, IP4 substrate, Biomol Green); assay type: biochemical; design: key to Scoring, Approach 2 (Initial velocity Ratio): +++: higher than reference or reference - 15%; ++: reference - 16% to reference - 30%; +: reference - 31% or lower; −: inhibitor; conditions: for Scoring, Approach 2 (Initial velocity Ratio): second approach: ratio of initial velocities IP4 25/250 μM compared with reference compound, values without asterisk
T1 construct: His
T1 sequence (Q92835 1-1189): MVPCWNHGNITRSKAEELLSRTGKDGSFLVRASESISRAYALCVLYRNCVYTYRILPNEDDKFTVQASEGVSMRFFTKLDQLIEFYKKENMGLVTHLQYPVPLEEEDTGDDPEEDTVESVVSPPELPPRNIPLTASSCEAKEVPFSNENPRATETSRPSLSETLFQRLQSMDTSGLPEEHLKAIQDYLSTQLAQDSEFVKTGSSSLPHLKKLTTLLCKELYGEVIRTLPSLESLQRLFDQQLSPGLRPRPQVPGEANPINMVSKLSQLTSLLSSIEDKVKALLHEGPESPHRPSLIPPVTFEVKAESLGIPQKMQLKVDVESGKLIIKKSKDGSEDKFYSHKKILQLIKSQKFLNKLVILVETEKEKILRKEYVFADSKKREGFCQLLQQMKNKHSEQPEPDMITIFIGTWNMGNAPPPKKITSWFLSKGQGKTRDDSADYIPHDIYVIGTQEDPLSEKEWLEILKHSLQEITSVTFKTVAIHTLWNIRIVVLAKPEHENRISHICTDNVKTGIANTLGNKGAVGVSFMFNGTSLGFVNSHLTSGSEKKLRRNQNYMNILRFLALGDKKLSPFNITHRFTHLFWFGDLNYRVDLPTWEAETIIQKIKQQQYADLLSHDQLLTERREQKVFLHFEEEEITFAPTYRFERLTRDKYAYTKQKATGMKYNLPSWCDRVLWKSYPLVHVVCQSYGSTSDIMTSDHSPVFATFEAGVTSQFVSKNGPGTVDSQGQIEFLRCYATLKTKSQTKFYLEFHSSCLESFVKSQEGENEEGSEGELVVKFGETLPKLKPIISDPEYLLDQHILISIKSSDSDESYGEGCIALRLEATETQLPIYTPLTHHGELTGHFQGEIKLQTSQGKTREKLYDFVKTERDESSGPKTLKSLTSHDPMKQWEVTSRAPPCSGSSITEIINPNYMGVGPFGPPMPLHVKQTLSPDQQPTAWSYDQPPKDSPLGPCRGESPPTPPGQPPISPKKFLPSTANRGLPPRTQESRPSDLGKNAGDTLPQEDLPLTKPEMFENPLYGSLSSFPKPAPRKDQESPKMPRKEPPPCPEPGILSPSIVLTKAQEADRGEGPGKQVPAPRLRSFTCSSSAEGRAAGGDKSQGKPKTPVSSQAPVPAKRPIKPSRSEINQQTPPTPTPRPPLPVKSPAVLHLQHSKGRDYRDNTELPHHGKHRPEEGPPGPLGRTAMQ
Method: Test compounds are dissolved in 95% ethanol to form stock solutions. Before screening, the stock solutions are diluted with Phosphatase Assay Buffer (20 mM Tris-HCL, 10 mM MgCl2 pH 7.5, 0.02% Tween 20) to form working assay solutions that contain 10% ethanol. The assay is carried out on 96-well microtiter plates using a modified procedure of that reported by Ong et al., Blood 110, 1942-1949, 2007 and Yang et al., Org Lett 7, 1073-1076, 2005, both of which references are incorporated herein by reference in their entirety.
Data were generated by one of two variant methods. Test compounds are screened by one of two approaches described as follows. In the first approach, each reaction contains 5 μL of His-hSHIP1 enzyme (5-20 ng), 10 μL of the substrate, 1,3,4,5-inositol tetrakisphosphate (IP4; 50 μM final), 5 μL of Phosphatase Assay Buffer, and 5 µL of test compound at various concentrations in 10% ethanol (0-300 μM final). Control blanks are also prepared by replacing His-hSHIP1 enzyme, IP4, or test compounds with Phosphatase Assay Buffer. After adding the reaction components in a 96-well microtiter plate on ice, the reaction is mixed by briefly shaking the plate vigorously. The reaction is then incubated at 37° C. for 15 min with gentle shaking followed by addition of 100 μL of Biomol Green Reagent (BIOMOL, PA, USA) to terminate the reaction. The free phosphate released from IP4 by His-hSHIP1 binds to the Biomol Green Reagent, which turns the dye to green color. After incubating the mixture for 20 min at room temperature for color development, the absorbance is read with SpectraMax Plus 96-well plate reader (Molecular Devices, Sunnyvale, Calif., USA) at a wavelength of 650 nm.
In the second approach, a master mix is prepared that contains 50 μL of His-hSHIP1 enzyme (0.4-1.6 ng/μL final), 25 μL of the substrate, IP4 (25 or 250 μM final), and 50 μL of test compound in 3.3% ethanol (100 μL final). Control blanks are also prepared by replacing His-hSHIP1 enzyme, IP4, or test compounds with Phosphate Assay Buffer. […] Each reaction component is preincubated at 37° C. for 30 min before adding to a 96-well microtiter plate. The master mix is then incubated at 37° C. At time 0, 20, and 30 min, 25 μL of the master mix is removed and transferred to a new 96-well microtiter plate, to which 100 μL of Biomol Green Reagent is added to stop the reaction. After incubating the mixture for 20 min at room temperature for color development, the absorbance is read with SpectraMax Plus 96-well plate reader at a wavelength of 650 nm. Phosphate released is plotted against time to calculate the initial velocities (i.e., slope of the graph) at each IP4 concentration. The initial velocities are baseline corrected and the ratio of initial velocities (IP425/IP4250) is calculated and used to rate the test compounds.

[1] = test system: Akt phosphorylation in Molt-4 (PTEN-/SHIP1+) cells; assay: Akt phosphorylation in lymphocytes (Western blot, IGF-1 stimulated); assay type: cell-based; design: key: +: inhibits Akt phosphorylation at 30 μM; −: no effect on Akt phosphorylation at 30 μM; conditions: 30 μM; Molt-4 (SHIP1+) cells, IGF-1 100 ng/mL
Method: Molt-4 (PTEN-/SHIP1+) cells are starved in serum free RPMI for overnight. In a 15 mL conical tube, 2-3 million serum starved cells (1 million cells per mL) are treated with various concentrations of test compound ([…]) for 30 min at 37° C. followed by stimulation with 100 ng/mL of IGF-1 for 1 hour at 37° C. After stimulation, cells are washed once with ice-cold DPBS and lysed with Lysis Buffer (20 mM Tris-HCl, pH 7.5, 140 mM NaCl, 1% NP-40, Complete Mini Protease Inhibitor Cocktail, 10 mM NaF, 1 mM Na3VO4, 1 mM β-glycerolphosphate) on ice for 30 min with vortexing every 10 min. Samples are then centrifuged at 13,000 rpm for 20 min, and supernatants are collected as total cell lysate samples. Protein concentration is determined using bicinchonic acid assay, and about 15 μg of total protein from each sample is loaded and separated on a 4-12% Tris-Glycine gel. After SDS-PAGE, proteins are transferred from the gel to a nitrocellulose membrane. The membrane is blocked in 5% BSA in PBS containing 0.1% Tween-20 (PBS-T) for 1 hour at room temperature before probing with primary antibodies for overnight at 4° C. The following antibodies are used: mouse anti-SHIP1 (1:500 dilution; Santa Cruz, Calif., USA), rabbit anti-phospho-Akt (Ser473) (1:1000 dilution; Cell Signaling Technologies, MA, USA), rabbit anti-Akt (1:1000; Cell Signaling Technologies, MA, USA), and rabbit anti-actin (1:2000; Cell Signaling Technologies, MA, USA). The membrane is then incubated with goat anti-rabbit or anti-mouse secondary antibodies (1:3000) for 1 hour at room temperature. Target proteins on the membrane are detected with ECL solution and exposed on a film.

| Structure (SMILES) | Molt-4 (SHIP+): inhibition of Akt phosphorylation [1] | further results |
| --- | --- | --- |
| C=C1CC[C@H]2[C@H](CCNCc3ccc(OC)cc3)[C@@H]([C@@]3(C)CC[C@H](O)C[C@@H]3O)CC[C@]12C [Cpd. No. 44, (1S,3S,4R)-4-((3aS,4S,5S,7aS)-4-(2-(4-methoxybenzylamino)ethyl)-7a-methyl-1-methyleneoctahydro-1H-inden-5-yl)-4-methylcyclohexane-1,3-diol] |  | Scoring, Approach 2 (Initial velocity Ratio) (His-hSHIP1 enzyme): ++ |
| C=C1CC[C@H]2[C@H](CNCc3ccc(F)cc3)[C@@H]([C@@]3(C)CC[C@H](O)C[C@@H]3CO)CC[C@]12C [Cpd. No. 10, (1S,3S,4R)-4-((3aS,4R,5S,7aS)-4-((4-fluorobenzylamino)methyl)-7a-methyl-1-methyleneoctahydro-1H-inden-5-yl)-3-(hydroxymethyl)-4-methylcyclohexanol] |  | Scoring, Approach 2 (Initial velocity Ratio) (His-hSHIP1 enzyme): − |
| C=C1CC[C@H]2[C@H](CO)[C@@H]([C@@]3(C)CC[C@H](N)C[C@@H]3CO)CC[C@]12C [Cpd. No. 63, ((1S,2R,5S)-5-amino-2-((3aS,4R,5S,7aS)-4-(hydroxymethyl)-7a-methyl-1-methyleneoctahydro-1H-inden-5-yl)-2-methylcyclohexyl)methanol] |  | Scoring, Approach 1 (% increase relative to background) (His-hSHIP1 enzyme; first approach: IP4 50 μM, test compound 0-300 μM, values marked with asterisk): ++* (50 ≤ x < 65) |
| C=C1CC[C@H]2[C@H](O)[C@@H]([C@@]3(C)CC[C@H](O)C[C@@H]3CCN3CCN(C)CC3)CC[C@]12C [Cpd. No. 48, (3aR,4R,5R,7aS)-5-((1S,2S,4S)-4-hydroxy-1-methyl-2-(2-(4-methylpiperazin-1-yl)ethyl)cyclohexyl)-7a-methyl-1-methyleneoctahydro-1H-inden-4-ol] | + |  |
| C=C1CC[C@H]2[C@H](CNOC)[C@@H]([C@@]3(C)CC[C@H](O)C[C@@H]3CO)CC[C@]12C [Cpd. No. 88, (1S,3S,4R)-3-(hydroxymethyl)-4-((3aS,4R,5S,7aS)-4-((methoxyamino)methyl)-7a-methyl-1-methyleneoctahydro-1H-inden-5-yl)-4-methylcyclohexanol] | + |  |
| C=C1CC[C@H]2[C@H](O)[C@@H]([C@@]3(C)CC[C@H](O)C[C@@H]3CCOc3ccccn3)CC[C@]12C [Cpd. No. 57, (3aR,4R,5R,7aS)-5-((1S,2S,4S)-4-hydroxy-1-methyl-2-(2-(pyridin-2-yloxy)ethyl)cyclohexyl)-7a-methyl-1-methyleneoctahydro-1H-inden-4-ol] | + |  |
| C=C1CC[C@H]2[C@H](C(=O)O)[C@@H]([C@@]3(C)CC[C@H](O)C[C@H]3CO)CC[C@]12C [Cpd. No. 98, (3aS,4R,5S,7aS)-5-((1R,2R,4S)-4-hydroxy-2-(hydroxymethyl)-1-methylcyclohexyl)-7a-methyl-1-methyleneoctahydro-1H-indene-4-carboxylic acid] | + |  |
| C=C1CC[C@H]2[C@H](CNC#N)[C@@H]([C@@]3(C)CC[C@H](O)C[C@@H]3CO)CC[C@]12C [Cpd. No. 89, N-(((3aS,4R,5S,7aS)-5-((1R,2S,4S)-4-hydroxy-2-(hydroxymethyl)-1-methylcyclohexyl)-7a-methyl-1-methyleneoctahydro-1H-inden-4-yl)methyl)cyanamide] | + |  |
| C=C1CC[C@H]2[C@H](CNC(=O)CCCC)[C@@H]([C@@]3(C)CC[C@H](O)C[C@@H]3CO)CC[C@]12C [Cpd. No. 24, N-(((3aS,4R,5S,7aS)-5-((1R,2S,4S)-4-hydroxy-2-(hydroxymethyl)-1-methylcyclohexyl)-7a-methyl-1-methyleneoctahydro-1H-inden-4-yl)methyl)pentanamide] | + |  |
| C=C1CC[C@H]2[C@H](CCN)[C@@H]([C@@]3(C)CC[C@H](O)C[C@@H]3CO)CC[C@]12C [Cpd. No. 29, (1S,3S,4R)-4-((3aS,4R,5S,7aS)-4-(2-aminoethyl)-7a-methyl-1-methyleneoctahydro-1H-inden-5-yl)-3-(hydroxymethyl)-4-methylcyclohexanol] | + |  |
| C=C1CC[C@H]2[C@H](CNC(=O)CC)[C@@H]([C@@]3(C)CC[C@H](O)C[C@@H]3CO)CC[C@]12C [Cpd. No. 22, N-(((3aS,4R,5S,7aS)-5-((1R,2S,4S)-4-hydroxy-2-(hydroxymethyl)-1-methylcyclohexyl)-7a-methyl-1-methyleneoctahydro-1H-inden-4-yl)methyl)propionamide] | + |  |
| C=C1CC[C@H]2[C@H](CNC(=O)NCC)[C@@H]([C@@]3(C)CC[C@H](O)C[C@@H]3CO)CC[C@]12C [Cpd. No. 84, 1-ethyl-3-(((3aS,4R,5S,7aS)-5-((1R,2S,4S)-4-hydroxy-2-(hydroxymethyl)-1-methylcyclohexyl)-7a-methyl-1-methyleneoctahydro-1H-inden-4-yl)methyl)urea] | + |  |
